Measurements from patent US4745185A, “D-arabinose-1,5-diphosphate salts and methods for the treatment of diabetes” (McNeilab, Inc., priority 1985, dated 1988).

Key:
[1] = target: T1, 6-phosphofructo-1-kinase (Rattus norvegicus, UniProt P30835); test: Allosteric activation of rat liver 6-phosphofructo-1-kinase; type: biochemical; details: rat liver enzyme, in vitro; read-out: half-maximal concentration, allosteric activation
T1 construct: from tissue; host or cells: rat liver
T1 sequence (P30835 2-780 limits assumed): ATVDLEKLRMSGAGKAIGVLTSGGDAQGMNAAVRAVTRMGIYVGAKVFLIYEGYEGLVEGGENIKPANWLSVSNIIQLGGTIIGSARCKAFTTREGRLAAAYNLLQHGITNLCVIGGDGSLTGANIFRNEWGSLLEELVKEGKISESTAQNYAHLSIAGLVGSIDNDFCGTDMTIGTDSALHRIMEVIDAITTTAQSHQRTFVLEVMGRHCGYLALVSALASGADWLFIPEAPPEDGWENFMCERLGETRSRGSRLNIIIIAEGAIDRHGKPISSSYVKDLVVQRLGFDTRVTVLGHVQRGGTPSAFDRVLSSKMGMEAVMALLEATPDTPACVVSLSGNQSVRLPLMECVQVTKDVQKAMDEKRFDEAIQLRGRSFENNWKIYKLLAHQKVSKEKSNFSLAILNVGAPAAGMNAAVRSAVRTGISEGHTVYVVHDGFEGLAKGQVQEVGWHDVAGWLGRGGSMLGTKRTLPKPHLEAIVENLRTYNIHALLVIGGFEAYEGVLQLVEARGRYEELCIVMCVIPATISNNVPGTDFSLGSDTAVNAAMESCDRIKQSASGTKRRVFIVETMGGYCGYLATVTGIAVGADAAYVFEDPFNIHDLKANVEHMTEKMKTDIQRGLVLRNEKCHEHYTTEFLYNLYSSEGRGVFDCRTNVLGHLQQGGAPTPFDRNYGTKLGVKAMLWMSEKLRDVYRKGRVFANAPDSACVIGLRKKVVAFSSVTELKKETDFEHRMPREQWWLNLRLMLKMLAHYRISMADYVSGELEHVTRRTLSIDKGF
Excerpt: (§1) The utility of compounds of the invention of formula (I) as hypoglycemic agents may be determined by measurement of Ki values as competitive inhibitors of rat liver fructose-1,6-biphosphatase and by measurement of half-maximal concentrations as allosteric activators of rat liver 6-phosphofructo-1-kinase, both of these tests being in vitro. An in vivo test for the activity of compounds of the invention is the Epinephrine-Induced Hyperglycemic Model (EIHM). In the EIHM, male Sprague-Dawley rats from Charles River Laboratories, average weight 200-280 grams, maintained on Lab-Blox® rat chow (Wayne) and provided water ad libitum were used throughout all studies; rats were fasted 18-24 hours prior to treatment with epinephrine (0.2 mg/kg i.p.) which was given intraperitoneally. Drug or vehicle were given 30 minutes prior to epinephrine. Blood samples were taken from the tail vein for measurement of glucose changes prior to and at 45 and 90 minutes after administration of epinephrine bitartrate (Sigma Co., St. Louis, MO). Blood glucose was determined using Autoflo Glucose (Bio-Dyanamics/bmc, Indianapolis, IN).
2. Allosteric activation of rat liver 6-phosphofructo-1-kinase
reported as half-maximal concentrations; methodology as described by S. J. Pilkis, et al. in The Journal of Biol. Chem., Vol. 256, pp. 3171 (1981).

[2] = system: 6-phosphofructo-1-kinase; details: cited from earlier work
[3] = system: fructose-1,6-biphosphatase; details: cited from earlier work
[4] = target: T2, fructose-1,6-biphosphatase (Rattus norvegicus, UniProt P19112); test: Rat liver fructose-1,6-biphosphatase inhibition; type: biochemical; details: competitive inhibitors; rat liver enzyme, in vitro
T2 construct: from tissue; host or cells: rat liver
T2 sequence (P19112 2-363 limits assumed): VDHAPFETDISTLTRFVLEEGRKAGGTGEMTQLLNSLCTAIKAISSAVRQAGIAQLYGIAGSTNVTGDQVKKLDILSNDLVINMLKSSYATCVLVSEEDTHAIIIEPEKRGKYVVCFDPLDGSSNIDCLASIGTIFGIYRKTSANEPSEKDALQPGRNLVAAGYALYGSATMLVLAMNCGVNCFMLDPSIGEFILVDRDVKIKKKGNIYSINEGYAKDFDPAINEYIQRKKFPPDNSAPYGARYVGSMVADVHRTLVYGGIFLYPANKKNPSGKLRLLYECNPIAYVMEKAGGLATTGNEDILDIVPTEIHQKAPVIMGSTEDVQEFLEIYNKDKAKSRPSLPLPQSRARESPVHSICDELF
Excerpt: as §1
1. Rat liver fructose-1,6-biphosphatase inhibition*:
*Methodology as described by S. J. Benkovic, et al. in Biochemistry, Vol. 10, No. 26, pp. 4881-4887 (1971).

[5] = system: blood glucose; test: Epinephrine-Induced Hyperglycemic Model (EIHM), in vivo; set-up: species or system male Sprague-Dawley rats; details: for maximum % lowering (blood glucose): 100 mg/kg i.p., given 30 minutes prior to epinephrine (0.2 mg/kg i.p.), fasted rats, glucose at 45 and 90 minutes
Excerpt: as §1
**reported as maximum % lowering; methodology as described by G. F. Tutwiler in Biochemical Medicine, Vol. 22, pp. 204 (1979).

EC50 [1]	Ki [4]	SMILES	stimulation of 6-phosphofructo-1-kinase (in words) [2]	inhibition of fructose-1,6-biphosphatase (in words) [3]	maximum % lowering (blood glucose) [5]	part of the drug effect due to the cyclohexylamine base ([5]; cyclohexylamine base used to crystallize Example 1d, Example 1d at 100 mg/kg i.p.)
50 nM	100 to 200 nM	O=P(O)(O)OC[C@H]1O[C@@](CO)(OP(=O)(O)O)[C@@H](O)[C@@H]1O [Compound (A), β-D-fructose-2,6-diphosphate, reference compound]	activates glycolysis by stimulating 6-phosphofructo-1-kinase	deactivates gluconeogenesis by inhibiting fructose-1,6-biphosphatase	0%	–
1000 nM	3400 nM	O=P(O)(O)OC[C@H]1O[C@@H](OP(=O)(O)O)[C@@H](O)[C@@H]1O [Example 1d, β-D-Arabinose-1,5-diphosphate]	–	–	85%	–
500 nM	30000 to 40000 nM	O=P(O)(O)OC[C@H]1O[C@H](OP(=O)(O)O)[C@@H](O)[C@@H]1O [Example 2b, α-D-Arabinose-1,5-diphosphate]	–	–	–	–
–	–	NC1CCCCC1 [cyclohexylamine]	–	–	–	approximately one-half of the drug effect
